Experimental data published in US20250066319A1, “NOVEL ACID ADDITION SALT AND CRYSTALLINE FORM OF (2R, 3S)-2-(3-(4,5-DICHLORO-1H-BENZO[d]IMIDAZOL-1-YL)PROPYL)PIPERIDIN-3-OL” (Daewoong Pharmaceutical Co., Ltd., priority 2021, published 2025).
Structures can show the parent of a compound that is named as a salt.

How the values were obtained:
[1] = Differential scanning calorimetry analysis after severe test with respect to temperature; assay type: physicochemical; details: high temperature condition (60° C.), 1 week and 8 weeks; Monohydrochloride
Protocol: For (2R,3S)-2-(3-(4,5-dichloro-1H-benzo[d]imidazol-1-yl)propyl)piperidin-3-ol monohydrochloride prepared in Example 1-1 and (2R,3S)-2-(3-(4,5-dichloro-1H-benzo[d]imidazol-1-yl)propyl)piperidin-3-ol dihydrochloride prepared in Comparative Example 1, each beaker was taken out 1 week and 8 weeks after the start of the test from the desiccator where the severe tests with respect to temperature were in progress, and the differential scanning calorimetry analysis was performed. At this time, the differential scanning calorimetry analysis was performed using a differential scanning calorimeter (DSC Q20, manufactured by TA Instruments) in a tightly closed pan under nitrogen purge at a scan rate of 10° C./min while raising the temperature from 20° C. to 300° C.

[2] = target: T1, PRS protein (prolyl-tRNA synthetase, PRS portion of EPRS) (Homo sapiens, UniProt P07814); assay: PRS enzyme activity inhibition experiment; assay type: biochemical; details: [3H]proline, 37° C., 5 to 10 minutes
T1 construct: the portion corresponding to PRS in cDNA of EPRS was subcloned; made in house
T1 sequence (P07814 1007-1512 limits assumed): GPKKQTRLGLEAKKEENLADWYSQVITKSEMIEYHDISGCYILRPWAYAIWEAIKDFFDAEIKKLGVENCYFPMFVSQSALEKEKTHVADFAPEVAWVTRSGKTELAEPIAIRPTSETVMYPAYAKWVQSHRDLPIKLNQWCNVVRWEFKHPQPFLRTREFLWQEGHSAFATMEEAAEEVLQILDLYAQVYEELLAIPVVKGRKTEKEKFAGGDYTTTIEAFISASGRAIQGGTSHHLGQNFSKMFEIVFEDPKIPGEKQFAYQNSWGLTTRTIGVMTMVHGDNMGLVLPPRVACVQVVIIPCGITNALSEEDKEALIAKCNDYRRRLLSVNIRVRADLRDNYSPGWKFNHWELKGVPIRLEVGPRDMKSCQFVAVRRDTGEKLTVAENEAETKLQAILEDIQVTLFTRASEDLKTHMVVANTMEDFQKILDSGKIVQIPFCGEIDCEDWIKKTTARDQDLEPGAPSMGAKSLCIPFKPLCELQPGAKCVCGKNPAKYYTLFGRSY
Protocol: IC50 values of PRS enzyme activity inhibition of the (2R,3S)-2-(3-(4,5-dichloro-1H-benzo[d]imidazol-1-yl)propyl)piperidin-3-ol monohydrochloride prepared in Example 1-1 were measured as follows.
Specifically, the portion corresponding to PRS in cDNA of EPRS was subcloned, and the obtained high-purity PRS protein was purified and used in the experiment. The compounds (1 μM) prepared in Examples were added into the reaction buffer (20 mM KPO4 (pH 7.4), 6 mM MgAc, 5 mM ATP, […] tRNA, 0.5 mM DTT, 20 mCi[^3H]proline (1 mCi/mL)) and allowed to react at 37° C. for 5 to 10 minutes. The reaction was terminated with 3M paper that was in advance dried by addition of 5% TCA. The radioactivity was measured using a liquid scintillation counter. % Inhibition and IC50 values of the compounds were calculated and analyzed using Microsoft Excel or Sigma Plot 8.0.

[3] = Stability confirmation: severe test with respect to temperature, HPLC peak area of main component; assay type: physicochemical; details: 60° C., relative humidity less than 10%, Monohydrochloride
Protocol: (§1) The acid addition salts prepared in some Examples and Comparative Examples were subjected to stability tests against high temperature and high humidity.
Specifically, the severe tests with respect to temperature were performed by placing 50 mg of a sample in a vial, closing the lid, and then measuring the content of impurities using HPLC (Azura, KNAUER, P6.1 1 L, DAD 6.1 L) after 1 week, 2 weeks, 4 weeks, and 8 weeks while storing in a chamber at 60° C. and a relative humidity of less than 10%.
(§2) At a fixed time after the start of the test, one vial or beaker was taken out from each time point (the number of samples per test: n=1), and impurities were analyzed using HPLC under the conditions shown in Table 3 below. Then, the peak area was determined through integration for all the detected peaks, and then the relative peak area (%) for the main component was calculated and expressed as an average value.

[4] = Hygroscopicity test (weight change in desiccators of constant relative humidity); assay type: physicochemical; parameters: scale not given here; details: room temperature, one day
Protocol: The hygroscopicity tests of the acid addition salts prepared in Examples 1-1 to 1-6 and Comparative Example 1 were performed.
After one day, the change in weight was measured, then transferred to another desiccator and the previous experiment was repeated. At this time, for sorption analysis, the weight change was measured by moving the sample from a low-humidity desiccator to a high-humidity desiccator, and for desorption analysis, the weight change was measured by transferring the sample from a high-humidity desiccator with high humidity to a low-humidity desiccator.

[5] = Stability confirmation: severe test with respect to moisture, HPLC peak area of main component; assay type: physicochemical; details: 93% RH, open beaker, Monohydrochloride
Protocol: as §1
And, the severe tests with respect to moisture were performed by placing 50 mg of a sample in a 10 ml beaker, and measuring the content of impurities using HPLC (Azura, KNAUER, P6.1 1 L, DAD 6.1 L) after 1 week, 2 weeks, 4 weeks, and 8 weeks while storing the sample in a 93% RH desiccator in a state that the lid was not closed so that the sample has sufficient contact with the moisture in the air.
as §2

Question: For `O[C@H]1CCCN[C@@H]1CCCn1cnc2c(Cl)c(Cl)ccc21` [Example 1-1, (2R,3S)-2-(3-(4,5-dichloro-1H-benzo[d]imidazol-1-yl)propyl)piperidin-3-ol Monohydrochloride], which “change in differential scanning calorimetry analysis pattern” value [1] is on record?
Answer: does not show any change in differential scanning calorimetry analysis pattern

Question: And the IC50 [2]?
Answer: 74 nM

Question: What about the “relative peak area for the main component (HPLC)” value (shortened to “relative peak area”) ([3]; after 1 week) of the same molecule?
Answer: 99.9%

Question: What about the “relative peak area” value ([3]; after 2 weeks) of the same molecule?
Answer: 99.8%

Question: What about the “relative peak area” value ([3]; after 4 weeks) of the same molecule?
Answer: 99.9%

Question: And the “relative peak area” value ([3]; after 8 weeks)?
Answer: 99.8%

Question: And the “relative peak area” value ([3]; initial)?
Answer: 99.9%

Question: What about the “weight change, desorption” value ([4]; 11% RH, Monohydrochloride) of the same molecule?
Answer: 100.8

Question: And the “weight change, desorption” value ([4]; 33% RH, Monohydrochloride)?
Answer: 101.2

Question: And the “weight change, desorption” value ([4]; 54% RH, Monohydrochloride)?
Answer: 100.8

Question: And the “weight change, desorption” value ([4]; 75% RH, Monohydrochloride)?
Answer: 101.7

Question: And the “weight change, sorption” value ([4]; 11% RH)?
Answer: 100

Question: And the “weight change, sorption” value ([4]; 33% RH, Monohydrochloride)?
Answer: 100

Question: What about the “weight change, sorption” value ([4]; 54% RH, Monohydrochloride) of the same molecule?
Answer: 101

Question: And the “weight change, sorption” value ([4]; 75% RH, Monohydrochloride)?
Answer: 101.6

Question: And the “weight change, sorption” value ([4]; 93% RH, Monohydrochloride)?
Answer: 101.6

Question: What about the “relative peak area” value ([5]; after 1 week) of the same molecule?
Answer: 99.8%

Question: What about the “relative peak area” value ([5]; after 2 weeks) of the same molecule?
Answer: 99.9%

Question: And the “relative peak area” value ([5]; after 4 weeks)?
Answer: 99.8%

Question: What about the “relative peak area” value ([5]; after 8 weeks) of the same molecule?
Answer: 99.9%

Question: And the “relative peak area” value ([5]; initial)?
Answer: 99.9%
